Literature values as cited in US20080031951A1, “Compositions and methods for the inhibition of phospholipase A2” (priority 2005, published 2008).
pIC50: −log10 of the molar value.

What was measured:
mGIID = mGIID (Mus musculus, UniProt Q9WVF6)
mGX = mGX (Mus musculus, UniProt Q9QXX3)
mGIIE = mGIIE (Mus musculus, UniProt Q9QUL3)
ear edema = conditions: mice, tetracenoylphorbol-13-acetate induced
pleurisy = conditions: rat, carageenin-induced pleurisy
mGV = mGV (Mus musculus, UniProt P97391)
mGIIA = mGIIA (Mus musculus, UniProt P31482)
toxoplasmosis = conditions: injection, murine toxoplasmosis model
hGIIA [1] = target: T1, hGIIA (Homo sapiens, UniProt P14555); parameters: host or cells: transgenic mice overexpressing hGIIA, blood; conditions: intravenous administration, transgenic mice overexpressing hGIIA
[2] = tested on: release of thromboxane A2 triggered by exogenously added hGIIA; conditions: guinea pig BAL fluids containing macrophages, eosinophils and epithelial cells
hyperalgesia = conditions: lumbar intrathecal administration, 3 rat models of hyperalgesia
sPLA2 activity = conditions: guinea pig model of ARDS
sepsis and organ failure = conditions: humans with sepsis and organ failure
colitis = conditions: rats, dextran sulfate- and trinitrobenzene sulfonic acid-induced
[3] = tested on: intestine injury following ischemia and reperfusion; conditions: rats, oral administration
septic shock = conditions: LPS injection, wild-type mice
[4] = target: T2, porcine pancreatic group IB sPLA2 / M-type receptor (Sus scrofa, UniProt P00592); conditions: mouse cells expressing the M-type receptor; read-out: IC50, block of binding of porcine pancreatic group IB sPLA2 to M-type receptor
T2 construct: host or cells: mouse cells expressing the M-type receptor

[5] = target: group X sPLA2 / M-type receptor; conditions: mouse cells expressing the M-type receptor; read-out: IC50, block of binding of group X sPLA2 to M-type receptor
[6] = tested on: PGE2 production in rat gastric epithelial cells; conditions: induced by TGF-α and IL-1, rat gastric epithelial cells
hGIIA [7] = target: T1, hGIIA; conditions: more potent than LY311727

T1 sequence (P14555 21-144): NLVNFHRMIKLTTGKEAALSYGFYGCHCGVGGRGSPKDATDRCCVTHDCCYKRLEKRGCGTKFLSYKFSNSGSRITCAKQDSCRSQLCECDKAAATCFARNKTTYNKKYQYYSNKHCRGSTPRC
Sequence of mGIIE (Q9QUL3 20-142): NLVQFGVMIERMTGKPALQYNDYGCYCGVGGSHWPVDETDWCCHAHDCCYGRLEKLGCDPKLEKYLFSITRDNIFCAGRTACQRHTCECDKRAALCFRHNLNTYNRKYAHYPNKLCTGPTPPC
T2 sequence (P00592 23-146): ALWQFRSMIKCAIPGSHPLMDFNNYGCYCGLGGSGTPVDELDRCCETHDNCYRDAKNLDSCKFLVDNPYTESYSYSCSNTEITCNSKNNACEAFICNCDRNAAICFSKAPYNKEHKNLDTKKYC
Sequence of mGIID (Q9WVF6 20-144): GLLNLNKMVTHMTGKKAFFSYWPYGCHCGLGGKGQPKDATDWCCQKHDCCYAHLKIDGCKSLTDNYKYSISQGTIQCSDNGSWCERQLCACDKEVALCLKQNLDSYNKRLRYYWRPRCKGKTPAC
Sequence of mGIIA (P31482 22-146): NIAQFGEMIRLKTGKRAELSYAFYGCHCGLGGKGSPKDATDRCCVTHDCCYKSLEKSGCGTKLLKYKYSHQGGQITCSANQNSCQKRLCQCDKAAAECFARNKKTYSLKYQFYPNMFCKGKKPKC
Sequence of mGV (P97391 21-137): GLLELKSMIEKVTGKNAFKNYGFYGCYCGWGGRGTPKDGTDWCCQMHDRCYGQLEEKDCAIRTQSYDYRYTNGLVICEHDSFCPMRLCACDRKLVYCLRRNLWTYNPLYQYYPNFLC
Sequence of mGX (Q9QXX3 29-151): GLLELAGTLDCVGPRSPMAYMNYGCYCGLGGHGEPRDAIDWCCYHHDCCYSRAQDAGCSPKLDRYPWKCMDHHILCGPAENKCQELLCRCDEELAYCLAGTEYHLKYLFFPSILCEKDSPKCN

CCCCCCCCCCCC(=O)c1c(O)c(C(=O)CCCCCCCCCCC)c(O)c(C2CC(c3ccc(O)cc3)Oc3cc(O)ccc32)c1O (stereo not shown) [YM-26734]
inhibition of mGIID (mGIID): potent inhibitor | inhibition of mGX (mGX): potent inhibitor | inhibition of mGIIE (mGIIE): potent inhibitor | ear edema (ear edema): reduced | accumulation of exudate fluid and leukocytes (pleurisy): significantly decreased | inhibition of mGV (mGV): potent inhibitor | inhibition of mGIIA (mGIIA): potent inhibitor

CCc1c(CC(N)=O)c2cc(OCCCP(=O)(O)O)ccc2n1Cc1ccccc1 [LY311727]
mortality (toxoplasmosis): earlier mortality | PLA2 catalytic activity in blood (hGIIA [1]): loss of PLA2 catalytic activity in blood | inhibition of release of thromboxane A2 [2]: able to inhibit | inflammation-related symptoms (hyperalgesia): attenuated all the inflammation-related symptoms observed | inhibition of sPLA2 activity induced by lipopolysaccharides (sPLA2 activity): could also inhibit

CCc1c(C(=O)C(N)=O)c2c(OCC(=O)[O-])cccc2n1Cc1ccccc1.[Na+] [S-5920/LY315920Na]
clinical outcome versus placebo (sepsis and organ failure): no significant differences

CCc1c(C(=O)C(N)=O)c2c(OCC(=O)OC)cccc2n1Cc1ccccc1 [LY333013]
effect on rheumatoid arthritis pathology, intravenous (rheumatoid arthritis; administered intravenously): positive impacts on the pathology | effect on rheumatoid arthritis pathology, oral (rheumatoid arthritis; orally distributed, patients with rheumatoid arthritis): significant reduction of the pathology during the first week of trial, but the benefits were lost thereafter | protection from colitis (colitis): protected rats | tolerability (asthma; in these patients): well tolerated | benefit on inhaled allergen challenge (asthma; subjects with asthma): failed to show any benefit

O=C(O)CC[C@@H](Cc1ccc(OCc2ccccc2)cc1)NC(=O)CCCCCCc1ccccc1 [5-(4-benzyloxyphenyl)-4s-(7-phenylheptanoylamino)-pentanoic acid]
protection from colitis (colitis): protected rats | protection of intestine from ischemia and reperfusion injury [3]: preserved rats intestine from injury

CCc1c(C(=O)C(N)=O)c2c(OCC(=O)O)cccn2c1Cc1ccccc1-c1ccccc1 [indoxam]
septic shock (septic shock): attenuated | pIC50 [4]: 6.89 | pIC50 [5]: 6.05 | PGE2 production [6]: inhibited

Cc1c(C(=O)C(N)=O)c2c(OCC(=O)O)cccc2n1Cc1ccccc1-c1ccccc1 [Me-indoxam]
potency to inhibit hGIIA relative to LY311727 (hGIIA [7]): about 20 fold
